From PMC11267533, “Ligandability at the Membrane Interface of GPx4 Revealed through a Reverse Micelle Fragment Screening Platform” (JACS Au, 2024)

How the values were obtained:
[1] = target: T1, aqueous (water-solubilized) GPx4 (Homo sapiens, UniProt P36969, U73G); test: 15N-HSQC CSP binding experiment with GPx4 in bulk aqueous conditions; conditions: for Binding to aqueous GPx4 (CSPs versus mmRM): 400 μM fragment, 100 μM GPx4, 1% DMSO; for Binding to aqueous GPx4 (CSPs): 15 mM fragment, 100 μM GPx4, 5% DMSO
T1 construct: Truncated U46G-GPx4 with a TEV cleavable poly-histidine tag was inserted into vector; poly-histidine tag with TEV cleavage site; host or cells: BL21 (DE3) E. coli
T1 sequence (P36969 1-170 isoform P36969-2 U46G): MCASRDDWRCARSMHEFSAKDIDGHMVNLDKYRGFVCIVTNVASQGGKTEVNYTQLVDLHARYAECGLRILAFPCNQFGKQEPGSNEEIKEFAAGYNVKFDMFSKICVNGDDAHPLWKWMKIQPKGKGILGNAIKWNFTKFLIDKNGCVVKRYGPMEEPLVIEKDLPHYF
Protocol: Next, we sought to understand whether fragment hits were solely bound to the membrane-embedded form of GPx4 or could also bind to the aqueous form. We performed aqueous binding experiments with 3 fragment hits with varying hydrophobicities. Of the fragment hits with Kd < 1 mM, the most hydrophobic fragment (fragment 5, cLog D 2.05, 5-hydroxy-1,3-benzoxathiol-2-one) and a hydrophilic fragment with the strongest affinity (fragment 6, cLog D −2.14, (2-methoxyethyl)(4-pyridinylmethyl)amine hydrochloride) were selected, along with a compound with an amphipathic structure and only modest hydrophobicity (fragment 1, cLog D 1.05, 4-(phenylamino)-1,2-dihydropyridin-2-one). Aqueous GPx4 was combined with 400 μM of either fragments 1, 5, or 6 to directly compare to the mmRM experiments. […] Since our fragments have variable degrees of solubility and partitioning, we realized that a hydrophilic fragment like 6 may partition into the water core of the mmRM, essentially causing a concentration effect as observed previously.[32],[33] To rule this out, the concentration of the fragments was increased to 15 mM in an aqueous sample, which would be the effective concentration if all of the fragments partitioned completely into the RM water core. […] DLS measurements were also collected to check for fragment aggregation in the aqueous conditions.[58] […] Inspection of ^1H NMR spectra confirmed that the aggregation observed at high concentration of fragments 1 and 5 is a small portion of the overall fragment concentration and that most of the fragment is in solution.
Fragments 1, 5, and 6 were selected to perform proof-of-concept experiments in bulk aqueous conditions. 400 μM and 15 mM aliquots of fragment were vacuum-dried overnight to remove excess DMSO. An apo GPx4 reference was collected with 1% DMSO or 5% DMSO to ensure that CSP calculations took into account DMSO needed for fragment solubilization. 100 μM GPx4 was added to the dried fragments, and DMSO was added to a total of 1% for the 400 μM and 5% for the 15 mM fragment experiments. These percentages were the lowest amounts needed to solubilize the fragments in solution. Prior to experimentation, the pH of the sample was checked to ensure that no change was observed upon the addition of the fragments. However, the 100 mM Bis-Tris at pH 6.0 ensured that the pH was not altered. ^15N-HSQC experiments were collected, and CSPs were analyzed and compared to the top-shifting resonances determined from the mmRM experiments. DLS measurements were collected to assess fragment aggregation in the aqueous conditions using a Malvern Zetasizer Nano-S instrument.

[2] = target: T2, GPx4 bound to DPC micelles (Homo sapiens, UniProt P36969, U73G); test: 15N-HSQC CSP experiment with GPx4 bound to DPC micelles; format: binding; conditions: 400 μM analogue, 0.4% DMSO
T2 construct: Truncated U46G-GPx4 with a TEV cleavable poly-histidine tag was inserted into vector; poly-histidine tag with TEV cleavage site; host or cells: BL21 (DE3) E. coli
T2 sequence (P36969 1-170 isoform P36969-2 U46G): T1 sequence (P36969 1-170 isoform P36969-2 U46G)
From the text: To investigate whether or not these fragments could be built upon and progress to higher affinity binders and potentially inhibitors, a secondary screening approach was used to find analogues of the original fragments. A fragment growing approach was followed due to the high success rate of improving fragment hits.[61],[62] Fragment growing improves binding affinity, or other properties, with the addition of different substitutions and/or expansions.[20] Commercially available analogues of fragments 1 and 5 were found by searching the ChemBridge (San Diego, CA) catalog for analogues with a 60% similarity for fragment 1 and a 70% similarity for fragment 5. A subset of analogues for each fragment was purchased and tested. These two fragments were the main focus for fragment progression due to their observed ability to partition into bilayers and bind to inhibitory regions of membrane-bound GPx4. Fragment 6 was not investigated further since it resides mainly in the water core of the mmRM model, and while interesting, it falls outside of our focus for this study. While all the five selected fragment 1 analogues produced reasonable CSPs in the membrane interface of GPx4; none produced titration curves that indicated enhanced binding (Table S1). […]

[3] = DLS check for fragment aggregation in aqueous conditions; format: physicochemical; conditions: 15 mM, 5% DMSO
Protocol: Next, we sought to understand whether fragment hits were solely bound to the membrane-embedded form of GPx4 or could also bind to the aqueous form. We performed aqueous binding experiments with 3 fragment hits with varying hydrophobicities. Of the fragment hits with Kd < 1 mM, the most hydrophobic fragment (fragment 5, cLog D 2.05, 5-hydroxy-1,3-benzoxathiol-2-one) and a hydrophilic fragment with the strongest affinity (fragment 6, cLog D −2.14, (2-methoxyethyl)(4-pyridinylmethyl)amine hydrochloride) were selected, along with a compound with an amphipathic structure and only modest hydrophobicity (fragment 1, cLog D 1.05, 4-(phenylamino)-1,2-dihydropyridin-2-one). Aqueous GPx4 was combined with 400 μM of either fragments 1, 5, or 6 to directly compare to the mmRM experiments. […] Since our fragments have variable degrees of solubility and partitioning, we realized that a hydrophilic fragment like 6 may partition into the water core of the mmRM, essentially causing a concentration effect as observed previously.[32],[33] […]
Fragments 1, 5, and 6 were selected to perform proof-of-concept experiments in bulk aqueous conditions. […] However, the 100 mM Bis-Tris at pH 6.0 ensured that the pH was not altered. ^15N-HSQC experiments were collected, and CSPs were analyzed and compared to the top-shifting resonances determined from the mmRM experiments. […]

CSPs of aqueous GPx4 ([1]; 400 μM analogue, 1.5% DMSO) | CSPs of GPx4 bound to DPC micelles [2] | Binding to aqueous GPx4 (CSPs) [1] | Structure (SMILES) | Binding to aqueous GPx4 (CSPs versus mmRM) [1] | Fragment aggregation by DLS [3]
little to no shifting | reasonable CSPs were observed |  | O=c1oc2c(-c3ccc(Cl)c(Cl)c3)cc(O)cc2s1 [Analog 5.5] |  | 
 |  | neither produced significant CSPs | O=c1cc(Nc2ccccc2)cc[nH]1 [Fragment 1, 4-(phenylamino)-1,2-dihydropyridin-2-one] | do not bind strongly to the aqueous form of the protein | a small population of large aggregating species
 |  | neither produced significant CSPs | COCCNCc1ccncc1.Cl [Fragment 6, (2-methoxyethyl)(4-pyridinylmethyl)amine hydrochloride] | do not bind strongly to the aqueous form of the protein | 

Structure (SMILES) | CSPs of aqueous GPx4 ([1]; 400 μM analogue, 1.5% DMSO) | CSPs of GPx4 bound to DPC micelles [2] | Binding to aqueous GPx4 (CSPs) [1] | Binding to aqueous GPx4 (CSPs versus mmRM) [1] | Fragment aggregation by DLS [3]
O=c1oc2ccc(O)cc2s1 [Fragment 5, 5-hydroxy-1,3-benzoxathiol-2-one] |  |  | does produce some CSPs that could be detected by a soluble screen | do not bind strongly to the aqueous form of the protein | a small population of large aggregating species
